US4965250A, “Peptide compounds having a nitrogenous polycyclic structure” (Adir ET CIE, priority 1987, dated 1990)

Tested on: polynuclear leukocytes present in the whole blood of dogs
Assay type: cell-based
Description: The compounds according to the invention were tested for their capacity to increase non-specific phagocytosis. This test consists in measuring, after treatment by flow cytometry, the capacity of the polynuclear leukocytes present in the whole blood of dogs to phagocytose latex beads 1.8 μm in diameter, on the one hand in the absence (control) and on the other hand in the presence of a compound of the invention.

SMILES: C[C@H]1OC(=O)N[C@@H]1C(=O)N[C@@H](CCCCN)C(=O)N1C2CCC(CC2)[C@H]1C(=O)N[C@@H](CCCNC(=N)N)C(=O)O [Example 1, Cyclo(S)Thr-(S)Lys-(S)ABO-(S)Arg-OH]
- increase relative to the control of the capacity of the polynuclear leukocytes for non-specific phagocytosis: 19%
